The series is described as follows: Plasma protein binding rate, CD-1 mouse plasma. Format: in vitro ADME. As to conditions: plasma of CD-1 mouse, dialysis 4 hours at 37° C. How it is done: The protein binding rate of Embodiment 6 in the plasma of human, CD-1 mouse and SD rat was determined, 796 μL of blank plasma was taken from human, CD-1 mice and SD rats, and 4 μL of test compound working solution (400 μM) or warfarin working solution (400 μM) was added to achieve a final concentration of the test compound and the warfarin in plasma samples of 2 μM. The samples were mixed thoroughly. The final concentration of organic phase DMSO was 0.5%, 50 μL of the test compound and warfarin plasma sample were transferred into sample receiving plates (three parallels), and a relative volume of corresponding blank plasma or buffer was immediately added, ensuring that the final volume of each sample well was 100 μL, and the volume ratio of plasma to dialysis buffer was 1:1. 400 μL of stop solution was added to these samples, which was used as a T0 sample for the determination of recovery and stability. […] The protein binding rate and the recovery rate were calculated by the formulas: % Protein unbinding rate (%)=100*Drug concentration through the dialysis membrane/drug concentration not through the dialysate: Protein binding rate (%)=100-% protein unbinding rate: % Recovery=100*(Drug concentration through the dialysis membrane+Drug concentration not through the dialysate)/Total drug concentration before undialysis. Protein binding rate and recovery rate were calculated.

As usually defined, the fraction unbound is the share of the substance not bound to proteins or other matrix. Low readings indicate little free substance, high ones much free substance. Take `COCCCOc1cc2c(cc1OC)-c1cc(=O)c(C(=O)O)cn1[C@H](C(C)(C)C)CO2` [Embodiment 6]: the free fraction (fraction unbound) at 4 h, 2 μM amounted to 0.498.

These data come from patent publication US20200197409A1, “HEPATITIS B VIRUS SURFACE ANTIGEN INHIBITOR” (FUJIAN COSUNTER PHARMACEUTICAL CO., LTD., priority 2017, published 2020).
